# Experimental data taken from US8075916B2, “Poly(organophosphazene) hydrogels for drug delivery, preparation method thereof and use thereof” (Korea Institute of Science and Technology, priority 2007, dated 2011).
# Experiments:
# [1] = target: T1, albumin (Bovine Serum Albumin; BSA) (Bos taurus, UniProt P02769); experiment: Formation of ionic bond between additives and protein drug (polyacrylamide gel electrophoresis); assay type: binding; conditions: additive 0.02, 0.1, 1 and 2 mg/ml in 0.01% albumin solution
# T1 construct: 0.01% albumin solution (Bovine Serum Albumin; BSA, Wako chemical); purchased Wako chemical
# Method: In order to confirm the formation of an ion bond between the additives and drugs, gel electrophoresis was conducted. […] BSA, Wako chemical) at various concentrations (0.02, 0.1, 1 and 2 mg/ml) and sufficiently stirred.
# [2] = pH 7.4
# [3] = test system: Stomach cancer cells, SNU-601; experiment: In vivo anti-cancer activity of hydrogel containing paclitaxel in nude mouse tumour model; conditions: 60 mg/kg, day 10 after administration, ten mice per group
# Method: A nude mouse (Oriental Bio, Balb/C, female of 5-weeks old, 20 g) was used as an animal model for animal experimentation for an in vivo test. Stomach cancer cells, SNU-601 (1×10^7 cells, 0.2 ml, Korean Cell Line Bank), were injected into the dorsum of the mouse. […] 0.2 ml of the solution was injected into the cancer cells, and the change in the size of the cells was measured. […] Each test was conducted for ten (10) mice for each of the control groups and the experimental groups.
# T1 sequence (P02769 25-607): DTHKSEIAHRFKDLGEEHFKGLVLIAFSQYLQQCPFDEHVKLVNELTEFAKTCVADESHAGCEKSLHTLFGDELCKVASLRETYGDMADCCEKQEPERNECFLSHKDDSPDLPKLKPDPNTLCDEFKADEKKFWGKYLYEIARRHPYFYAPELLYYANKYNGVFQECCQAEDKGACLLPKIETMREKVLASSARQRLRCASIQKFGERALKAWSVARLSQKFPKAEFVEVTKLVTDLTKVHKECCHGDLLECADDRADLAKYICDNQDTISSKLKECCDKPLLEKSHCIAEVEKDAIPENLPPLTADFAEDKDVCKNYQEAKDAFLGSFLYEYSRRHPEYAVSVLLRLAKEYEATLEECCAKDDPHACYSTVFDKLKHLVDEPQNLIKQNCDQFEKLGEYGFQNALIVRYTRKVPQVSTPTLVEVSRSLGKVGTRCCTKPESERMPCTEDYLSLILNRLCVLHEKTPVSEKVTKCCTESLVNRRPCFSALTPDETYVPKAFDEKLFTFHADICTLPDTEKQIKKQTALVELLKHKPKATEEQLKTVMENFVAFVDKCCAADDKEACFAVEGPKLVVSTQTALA
Compound,Max. gelling temp. [2],further results
protamine,–,ionic bond with albumin: development on polyacrylamide gel [1]: worse development property of the gel as the concentration of the additive is higher
poly[(isoleucine ethyl ester) (aminomethoxy polyethylene glycol 550)(aminoethylsuccinate)(aminoethylsuccinate ethylene hyaluronic acid)phosphazene] [Example 22],38 °C,–
CC(=O)O[C@H]1C(=O)[C@@]2(C)[C@H]([C@H](OC(=O)c3ccccc3)[C@]3(O)C[C@H](OC(=O)[C@H](O)[C@@H](NC(=O)c4ccccc4)c4ccccc4)C(C)=C1C3(C)C)[C@]1(OC(C)=O)CO[C@@H]1C[C@@H]2O [paclitaxel],–,mice died due to toxicity [3]: 8 mice

# Now from value to compound, other results behind:
Max. gelling temp. [2],Compound,further results
46 °C,poly[(isoleucine ethyl-ester)(aminomethoxy polyethylene glycol 550)(glycylleucine)phosphazene] [Example 9],–
37 °C,poly[(isoleucine ethyl ester)(aminomethoxy polyethylene glycol 550)(aminoethylsuccinate)phosphazene] [Example 18],–
